Where “and” joins values, the source holds several entries; their conditions need not be identical. Equal entries are not always repeated.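 Method: 48-hour compound exposure of cells in 96-well plates, five concentrations, linear interpolation of endpoints. The concentration for 50% growth inhibition is given as GI50. At the TGI there is no net growth.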
Columns and labels:
Test in all cases: DTP human tumour cell line panel, 48 h
MCF7 breast = system: MCF7 breast
MDA-MB-231 breast = system: MDA-MB-231 breast
PC-3 prostate = system: PC-3 prostate
MDA-N = system: MDA-N
DLD-1 colon = system: DLD-1 colon
LXFL 529 NSCLC = system: LXFL 529 NSCLC
DMS 114 small cell lung = system: DMS 114 small cell lung
DMS 273 small cell lung = system: DMS 273 small cell lung

CN(C)C(=O)O[C@H]1CN[C@H](C#Cc2cc3ncnc(Nc4ccc(OCc5cccc(F)c5)c(Cl)c4)c3s2)C1
GI50 (MCF7 breast): 14.6 µM | TGI (MCF7 breast): > 25 µM | GI50 (MDA-MB-231 breast): 4.14 µM | TGI (MDA-MB-231 breast): 11.6 µM | GI50 (PC-3 prostate): 5.44 µM | TGI (PC-3 prostate): > 25 µM

c1c[nH]c(CN2CCOCC2)n1
TGI (MCF7 breast): > 100 µM | TGI (MDA-MB-231 breast): > 100 µM | TGI (MDA-N): > 100 µM | TGI (PC-3 prostate): > 100 µM

O=c1c2cc(Br)ccc2nc(CCl)n1-c1ccc(O)c([N+](=O)[O-])c1
TGI (DLD-1 colon): 33.4 µM | TGI (LXFL 529 NSCLC): 39.9 µM

O=C(Nc1ccc(Cl)c(Cl)c1)NS(=O)(=O)c1cnccc1Oc1ccc(F)cc1
GI50 (MCF7 breast): 2.37 µM | TGI (MCF7 breast): 7.8 µM | GI50 (MDA-MB-231 breast): 5.5 µM | TGI (MDA-MB-231 breast): 38.5 µM | GI50 (PC-3 prostate): 3.25 µM | TGI (PC-3 prostate): > 100 µM

Cc1ccc(-c2nc3nc(-c4ccc(F)cc4)nc(N4CCCNCC4)c3o2)cc1
GI50 (MCF7 breast): 1.23 µM | TGI (MCF7 breast): 2.96 µM | GI50 (MDA-MB-231 breast): 1.63 µM | TGI (MDA-MB-231 breast): 3.11 µM | GI50 (PC-3 prostate): 1.56 µM | TGI (PC-3 prostate): 3.18 µM

CN(C)CCNC(=O)Cn1ccc(=O)c2c([N+](=O)[O-])cccc21
TGI (MCF7 breast): > 100 µM | TGI (MDA-MB-231 breast): > 100 µM | TGI (MDA-N): > 100 µM | TGI (PC-3 prostate): > 100 µM

Cc1cc(I)cc(CN(C)CCCN2CCCC2)c1O
GI50 (MCF7 breast): 12.8 µM | TGI (MCF7 breast): 29.5 µM | GI50 (MDA-MB-231 breast): 18.6 µM | TGI (MDA-MB-231 breast): 49.9 µM | GI50 (PC-3 prostate): 25 µM | TGI (PC-3 prostate): 73.7 µM

O=C1CCCCN1CCCCC#Cc1cccc(C#Cc2cccnc2)c1
GI50 (MCF7 breast): 30.4 µM | TGI (MCF7 breast): > 100 µM | GI50 (MDA-MB-231 breast): 12 µM | TGI (MDA-MB-231 breast): 27.7 µM | GI50 (PC-3 prostate): 11.6 µM | TGI (PC-3 prostate): > 100 µM

COC(=O)C(/C(=N\O)C(=O)Nc1cccc(Cl)c1C)c1cnc2ccccc2n1 (configuration not stated)
TGI (MCF7 breast): > 100 µM | TGI (MDA-MB-231 breast): > 100 µM | TGI (MDA-N): > 100 µM | TGI (PC-3 prostate): > 100 µM

O=S(=O)(CCCl)c1ccc(Cl)cc1
GI50 (MCF7 breast): 2.19 µM | TGI (MCF7 breast): 10.3 µM | GI50 (MDA-MB-231 breast): 2.55 µM | TGI (MDA-MB-231 breast): 9.03 µM | GI50 (PC-3 prostate): 5.82 µM | TGI (PC-3 prostate): 22.9 µM

O=c1c(F)cn(Cc2ccccc2CCl)c(=O)n1Cc1ccccc1CCl
GI50 (MCF7 breast): 1.16 µM | TGI (MCF7 breast): 6.11 µM | GI50 (MDA-MB-231 breast): 1.93 µM | TGI (MDA-MB-231 breast): 4.92 µM | GI50 (PC-3 prostate): 2.54 µM | TGI (PC-3 prostate): 8.83 µM

Cn1cc(C2=C(c3cn(C4CCN(Cc5ccccn5)CC4)c4ccccc34)C(=O)NC2=O)c2ccccc21
GI50 (MCF7 breast): 3.23 µM | TGI (MCF7 breast): > 100 µM | GI50 (MDA-MB-231 breast): > 100 µM | TGI (MDA-MB-231 breast): > 100 µM | GI50 (PC-3 prostate): 3.97 µM | TGI (PC-3 prostate): > 100 µM

CCOC(=O)C1SC(=Nc2ccc(Cl)cc2)N=C1C (configuration not stated)
TGI (DLD-1 colon): 28.7 µM | TGI (DMS 114 small cell lung): 81 µM

CCC1=CC2CN(C1)Cc1c([nH]c3ccccc13)[C@@](C(=O)OC)(c1cc3c(cc1OC)N(C)[C@H]1[C@@](O)(C(=O)OC)[C@H](OC(C)=O)[C@]4(CC)C=CCN5CC[C@]31[C@@H]54)C2 (some centres not stated)
GI50 (MCF7 breast): < 0.005 µM | TGI (MCF7 breast): 50 µM and > 100 µM | GI50 (MDA-MB-231 breast): 0.0182 µM and 0.0211 µM | TGI (MDA-MB-231 breast): 5.74 µM and 0.873 µM | GI50 (PC-3 prostate): < 0.005 µM | TGI (PC-3 prostate): 32.6 µM and > 100 µM

O=S(=O)(NCCCNc1nccc(-c2c(-c3ccc(F)cc3)nc3sccn23)n1)c1ccc2ccccc2c1
GI50 (MCF7 breast): 3.71 µM | TGI (MCF7 breast): > 100 µM | GI50 (MDA-MB-231 breast): 3.8 µM | TGI (MDA-MB-231 breast): > 100 µM | GI50 (PC-3 prostate): 4.36 µM | TGI (PC-3 prostate): > 100 µM

O=c1oc2ccc(I)cc2c(=O)n1-c1ccc(Cl)cc1F
GI50 (MCF7 breast): 2.36 µM | TGI (MCF7 breast): 36.5 µM | GI50 (MDA-MB-231 breast): 1.27 µM | TGI (MDA-MB-231 breast): 5.71 µM | GI50 (PC-3 prostate): 2 µM | TGI (PC-3 prostate): 7.11 µM

CCOC(=O)NC(=O)c1cn(CCN2CCN(C(=O)CCCCCCCCCCC(=O)N3CCN(CCn4cc(C(=O)NC(=O)OCC)c(=O)[nH]c4=O)CC3)CC2)c(=O)[nH]c1=O
TGI (DLD-1 colon): > 100 µM | TGI (DMS 114 small cell lung): > 100 µM | TGI (LXFL 529 NSCLC): > 100 µM

CSc1nnc(COc2ccc(Cl)cc2)o1
TGI (DLD-1 colon): > 100 µM | TGI (DMS 114 small cell lung): > 100 µM | TGI (DMS 273 small cell lung): > 100 µM | TGI (LXFL 529 NSCLC): > 100 µM

COc1ccc(/C(=N\NC(=S)NN)C(c2ccc(OC)cc2)C2C(=O)Oc3ccccc32)cc1 (configuration not stated)
GI50 (DLD-1 colon): > 100 µM | TGI (DLD-1 colon): > 100 µM | TGI (DMS 114 small cell lung): > 100 µM | GI50 (DMS 273 small cell lung): > 100 µM | TGI (DMS 273 small cell lung): > 100 µM | TGI (LXFL 529 NSCLC): > 100 µM

COc1ccc2c(c1)/C(=C/c1cc(OC)c(OC)c(OC)c1)C(=O)N2
GI50 (MCF7 breast): 0.35 µM | TGI (MCF7 breast): > 100 µM | GI50 (MDA-MB-231 breast): 1.51 µM | TGI (MDA-MB-231 breast): 66.8 µM | GI50 (PC-3 prostate): 0.364 µM | TGI (PC-3 prostate): > 100 µM

O=C(N/N=C/c1ccccc1O)c1ccccc1
GI50 (MCF7 breast): 2.86 µM | TGI (MCF7 breast): > 100 µM | GI50 (MDA-MB-231 breast): 5.11 µM | TGI (MDA-MB-231 breast): > 100 µM | GI50 (PC-3 prostate): 6.53 µM | TGI (PC-3 prostate): > 100 µM

COc1cnc2c(c1)C(=O)c1c-2n(CCCN2CCN(C)CC2)c(=O)c2cc([N+](=O)[O-])ccc12
GI50 (MCF7 breast): 0.0162 µM | TGI (MCF7 breast): 1.2 µM

O=c1cc(/C=C/c2ccccc2)[nH]c2cc3c(cc12)OCO3
TGI (MCF7 breast): 21.5 µM | TGI (MDA-MB-231 breast): 9.18 µM | TGI (MDA-N): 6.23 µM

CCCCN(CC)CC(C(C)=O)c1c(O)c2ccccc2oc1=O (configuration not stated)
TGI (DLD-1 colon): > 100 µM | TGI (DMS 114 small cell lung): > 100 µM | TGI (DMS 273 small cell lung): > 100 µM | TGI (LXFL 529 NSCLC): > 100 µM

CCCCn1c(-c2ccc(C(=O)O/N=C(\N)c3ccc4c(c3)OCO4)cc2)nc(-c2ccccc2)c1-c1ccccc1
GI50 (MCF7 breast): 2.38 µM | TGI (MCF7 breast): 8.83 µM | GI50 (MDA-MB-231 breast): 2.99 µM | TGI (MDA-MB-231 breast): > 100 µM | GI50 (PC-3 prostate): 2.59 µM | TGI (PC-3 prostate): > 100 µM

C=C(C)C1C/C=C(/C)CCCC2(CCC3=C(CC(C(=C)C)C/C=C(/C)CCC3)O2)C(=O)C1 (configuration not stated)
TGI (DLD-1 colon): > 100 µM | TGI (DMS 114 small cell lung): > 100 µM | TGI (DMS 273 small cell lung): > 100 µM | TGI (LXFL 529 NSCLC): > 100 µM

O=C(O)[C@H](c1ccccc1)[C@@H](C(=O)O)c1ccccc1
TGI (MCF7 breast): > 100 µM | TGI (MDA-MB-231 breast): > 100 µM | TGI (MDA-N): > 100 µM | TGI (PC-3 prostate): > 100 µM

N#Cc1ccc(NC(=O)C(CC(=O)OCc2ccccc2)NC(=O)OCc2ccccc2)cc1 (configuration not stated)
GI50 (MCF7 breast): > 100 µM | TGI (MCF7 breast): > 100 µM | GI50 (MDA-MB-231 breast): > 100 µM | TGI (MDA-MB-231 breast): > 100 µM | GI50 (MDA-N): > 100 µM | TGI (MDA-N): > 100 µM | GI50 (PC-3 prostate): > 100 µM | TGI (PC-3 prostate): > 100 µM

COc1ccc(CN2CCC/C=C/CC(Cl)(Cl)C2=O)cc1
TGI (DLD-1 colon): > 100 µM | TGI (DMS 114 small cell lung): 71.3 µM | TGI (DMS 273 small cell lung): > 100 µM | TGI (LXFL 529 NSCLC): > 100 µM

C=C1C(=O)O[C@H]2[C@H]1CC/C(C=Nc1c(N)cc(C(F)(F)F)cc1Br)=C\CC[C@@]1(C)O[C@@H]21
GI50 (MCF7 breast): 0.982 µM | TGI (MCF7 breast): 4.48 µM | GI50 (MDA-MB-231 breast): 1.33 µM | TGI (MDA-MB-231 breast): 3.15 µM | GI50 (PC-3 prostate): 1.5 µM | TGI (PC-3 prostate): 3.85 µM

O=C(/C=C/c1ccccc1)CC(=O)CCC(=O)Nc1ccc(Cl)cc1
TGI (DLD-1 colon): > 100 µM | TGI (DMS 114 small cell lung): > 100 µM | TGI (DMS 273 small cell lung): > 100 µM | TGI (LXFL 529 NSCLC): > 100 µM

— PubChem BioAssay (NCI)
